The record followed here is PubChem BioAssay (NCI).

Common to all, as to experiment: DTP human tumour cell line panel, 48 h
For test [1], the system named is IGROV1 ovarian.
In test [2] the test system is LOX IMVI melanoma.
Test [3] relates to MDA-MB-231 breast.
Test [4] has as its system SK-MEL-2 melanoma.
Test [5] concerns SN12C renal.
The subject of test [6] is MCF7 breast.
The test system of test [7] is 786-0 renal.
The subject of test [8] is PC-3 prostate.
For test [9], the system named is SR leukemia.
Test [10] relates to OVCAR-4 ovarian.

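Results reflect a 48-hour exposure of cells in 96-well plates to compound at five concentrations. TGI is the concentration that stops growth completely.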

Take `COc1ccccc1C[C@@H]1OC2(C=CC(=O)CC2SC(=O)c2ccccc2)O[C@H]1Cc1ccccc1OC` (stereo not given in full): the TGI in [1] was found to be 2740 nM; in [2] it was 1900 nM; in test [3], 7230 nM; in test [4], 3310 nM; in [5] it was 6490 nM; in [6], 2360 nM. The TGI in [7] came out at 973 nM; in test [8], 4710 nM; in test [9], 2810 nM; in test [10] it was 3690 nM.
Regarding `CC(=O)OCC(OC(C)=O)C1C[C@H]2O[C@@H]3[C@H](C[C@H]2O1)O[C@@]1(C[C@@H]3C)C[C@H](C)[C@@H]2O[C@]3(C[C@@H]2O1)C[C@H]1O[C@H]2[C@H](C)[C@H]4OC(=O)C[C@H]5CC[C@@H]6OC7[C@H]8O[C@]9(CC[C@H]%10CC(=O)[C@H](CC[C@H]%11C[C@@H](C)C(=O)C(C[C@@H]4O[C@H]2C[C@H]1O3)O%11)O%10)CC8O[C@@H]7[C@@H](O9)[C@H]6O5` (stereo not given in full), the TGI in [1] was greater than 1000 nM; in test [2] it was greater than 859 nM; in [3], greater than 1000 nM; in test [4] it was greater than 1000 nM; in test [5], greater than 1000 nM; in test [6] it was greater than 1000 nM. The TGI in test [7], in test [8], in test [9] and in [10] was greater than 1000 nM each time.
